Data published in publication PMC10954600, “A novel laccase from Trametes polyzona with high performance in the decolorization of textile dyes” (AMB Express, 2024).

System: TP-Lac2
Settings: 25 mM tartrate buffer, pH 3.5, 50 °C; 0.05-1.5 mM ABTS

- Km: 250 ± 40 µM
SMILES: CCn1c(=NN=c2sc3cc(S(=O)(=O)O)ccc3n2CC)sc2cc(S(=O)(=O)O)ccc21 [ABTS]
